Source: US20080108511A1, “GENES AND GENE PRODUCTS […] EXPRESSED DURING HEART FAILURE” (priority 2006, published 2008)
Marks after values point to notes of the source that are not given here.

System: turkey poults
Details: in vivo
Description: The values shown in Table 4 are the average values±the standard error. The values in parentheses indicate the number of hearts. CK is creatine kinase, LDH is lactate dehydrogenase, and AST is aspartate transaminase. Ca^2+-ATPase activity was normalized per gram of protein. * represents p<0.05.

ATP synthase: 87 ± 4* (4) IU/g
LDH: 219 ± 12* (9) IU/g
Myoglobin: 27.2 ± 3.1* (5) μg/g
SR Ca2+ cycling: Ca2+-ATPase: 3.4 ± 0.6* (4) IU/g
SR Ca2+ cycling: Ca2+-ATPase pump: 24.4 ± 6.3* (9) nM/s
Total ATPase: 16.8 ± 0.9* (4) IU/g
Total protein: 111 ± 3.0* (8) mg/g
myofibrillar protein content: 34.6 ± 2.5 mg/g
Structure (SMILES): O=C1OCCN1/N=C/c1ccc([N+](=O)[O-])o1 [Fz, furazolidone]
